According to US20240164380A1, “ANTIFUNGAL COMPOSITIONS AND METHODS FOR THEIR USE” (Texas Crop Science, Inc., priority 2022, published 2024):

Assays:
[1] = system: Zymoseptoria tritici (Septoria tritici); test: Greenhouse crop test of Compound 1 with metconazole on winter wheat; assay type: in vivo; details: winter wheat infected with Z. tritici, preventative spray 1 d before inoculation, FIG. 9
Description: A 2019 field isolate of Zymoseptoria tritici (Septoria tritici) was grown on potato dextrose agar (PDA), amended with penicillin and streptomycin, to eliminate possible bacterial contamination, for 6 d at 20° C.
Spore suspensions were made by flooding the plates with sterile distilled water and scraping gently. The spore suspensions were adjusted to 10^6 conidia mL^−1, by haemocytometer counts and appropriate dilution, before final re-suspension in potato dextrose broth, amended with 1.5 g L^−1 gelatin and 0.5 g L^−1 sodium oleate.
Septoria-susceptible winter wheat cv Trinity was planted in Levington M3 compost. Seeds (12-15 per pot) were planted per 9 cm pot and grown to growth stage 12. Plants were accommodated in a glasshouse with day heating to 20° C., venting at 22° C., and night heating to maintain 15° C. Plants were inoculated with Z. tritici by spraying spore suspensions at 10^6 spores ml^−1 to just before run-off. Three replicate pots were used per treatment. The plants were placed in sealed, transparent propagators for 72 hours, to maintain high relative humidity and to ensure free water remained on leaves. […] Preventative fungicide sprays were made 1 d before inoculation. Treatments were randomised within the glasshouse. All fungicides were applied at the equivalent rate of 200 L water per hectare, using a calibrated pressurised hand-held sprayer. […]

plant pathogenic fungi = test: Crop trials of fungicides with and without the enhancer compound (FIGS. 1-8); assay type: in vivo; details: soy, wheat and grape crops
From the text: FIG. 1 illustrates Asian soybean rust severity in untreated crop (UTC) versus soy treated with azoxystrobin, chlorothalonil, tebuconazole or azoxystrobin and tebuconazole with and without the present enhancer compound (TX 15) at 1, 7, 9, 14 and 16 days after application (DAA).
FIG. 2 illustrates frogeye leaf spot intensity of infection in soy in untreated crop (UTC) versus soy treated with azoxystrobin, chlorothalonil, tebuconazole or azoxystrobin and tebuconazole with and without the present enhancer compound (TX15) at 4, 11 and 18 (two trials) days after application (DAA).
FIG. 3 illustrates yellow rust foliar infection percentage of wheat in untreated crop (UTC) versus wheat with preventive application of AMISTAR® (azoxystrobin), folpet, PROLINE® (prothioconazole), REVYSTAR® (fluxapyroxad and mefentrifluconazole), A20944 (prothioconazole and pydiflumetofen), ELATUS® ERA (prothioconazole and benzovindiflupyr), A21857 (ADEPIDYN®; pydiflumetofen), INATREQ® (fenpicoxamid) with and without the present enhancer compound (TX 15). […]
FIG. 7 illustrates the severity of downy mildew attack on grape crops assessed as to bunches and leaves in untreated crop (UTC) versus crop treated with cyazofamid or cyazofamid and the present enhancer compound (TX 15). […]

apyrase = test: In vitro apyrase assay (screen for apyrase inhibitors); assay type: biochemical; details: inhibitor conc at 1 mM, 1 hr at room temperature, absorbance @630 nm
Description: Method 1: In Vitro Apyrase Assay:
The apyrase inhibitory activity was assessed using an in vitro assay. The method of Windsor, Bio Techniques 33:1024-1030 (November 2002) was used as follows:
96 well plates were used for the assay: (Greiner bio-one: REF-655901- 96 well, PS, F-bottom, Clear, Non-binding)
Reaction Buffer: 60 mM Hepes; 3 mM MgCl2, 3 mM CaCl2 and 3 mM ATP (pH 6.5)
Development Buffer A: 2% aqueous ammonium molybdate
Development Buffer B: 11% ascorbic acid in 37.5% TCA in water
Stop buffer C: 2% trisodium citrate in 2% acetic acid solution in water • Add 100 μl of reaction buffer to each well. • Add 10 μl of DMSO (control) or inhibitor/compound or compounds such as N1915 or orthovanadate to each well. (use inhibitor conc at 1 mM; orthovanadate at 2 mM and N1915 at 1 mM) • Add 10 μl of apyrase (concentration based on optimization—Dilute 1 U/μl enzyme to different concentrations such as 0.1 U, 0.05 U, 0.0025, 0.001 U, 0.0005 U—to find a good range) • Incubate plate at room temperature for 1 hr • Mix development buffer A and B in the ratio of 1:1.5 (just before use). • Add 50 ul of A:B mix in each well (incubate for 2 mins) • Add 50 ul of C in each well • Measure/Read Absorbance of plate @630 nm Compound 1 inhibited inhibited apyrase in this assay at about 60%. : […]

| Structure (SMILES) | effect of combining Compound 1 (TX15) with the fungicide [1] | fungal growth in combination with exemplary fungicides (plant pathogenic fungi) | inhibited apyrase (apyrase) |
| --- | --- | --- | --- |
| CC1(C)CCC(Cc2ccc(Cl)cc2)C1(O)Cn1cncn1 (stereo not drawn) [metconazole] | synergistic effect | – | – |
| C/C(=N\NC(=O)c1cccc(C)c1)c1ccc2ccccc2c1 [Compound 1, (E)-3-methyl-N′-(1-(naphthalen-2-yl)ethylidene)benzohydrazide] | – | dramatically reduces fungal growth | about 60% |
